Where no end group is shown, it is not given here.
What was measured:
[1] = system: tumour lines HeLa, HL-60, Jukat, U937 and PC3; assay: Tetrazolium-based cell viability assay, tumour lines; set-up: species or system human; settings: range over HeLa, HL-60, Jurkat, 48 h, MTT (adherent) or MTS/PMS (suspension), estimated, three independent experiments
Experimental: Human epithelial cervical cancer (HeLa), leukemic monocyte lymphoma (U937), prostate cancer (PC3), promyelocytic leukemia (HL-60), leukemic T cell lymphoblast (Jurkat) cells were cultured in RPMI-1640 medium supplemented with 5–10% (v/v) fetal calf serum (FCS), 100 U/mL penicillin and 100 μg/mL streptomycin (Invitrogen, Carlsbad, CA). Human umbilical vein […] cell (HUVEC) cells were cultured in M199 medium (Invitrogen) supplemented with 20% (v/v) FCS, 40 μg/mL gentamicin, 4 μg/mL endothelial cell growth factor, 4 μg/mL L-glutamine and 135 μg/mL heparin, in 0.1% (w/v) gelatin-coated Corning CELLBIND flask (Corning Life Sciences, Acton, MA). […]
Different concentrations of HBD-3 were added to cells seeded in 96-well plates in appropriate complete medium. […] After 48 h, cell viability was determined using 3-(4,5-dimethylthiazol-2-yl)-2,5-diphenyltetrazolium bromide (MTT) (Sigma-Aldrich, MO) for adherent cells (HeLa, PC3, HUVEC, AHDF, CASMC) or 3-(4,5-dimethylthiazol-2-yl)-5-(3-carboxymethoxyphenyl)-2-(4-sulfophenyl)-2H-tetrazolium (MTS) (Promega, Madison, WI) coupled with phenzine methosulfate (PMS) (Promega) for suspension cells (U937, HL-60, Jurkat) prior to absorbance measurement at 570 nm and […], respectively. Absorbance readings of untreated control wells was designated as 100% cell viability.

[2] = system: primary cell type (HUVEC, AHDF, CASMC); assay: Flow cytometry-based PI uptake assay, primary cell types; set-up: species or system human; settings: 50 μM HBD-3 (highest dose tested), each primary cell type, 37°C, 30 min
Experimental: Cells suspended at 1×10^6 cells/mL in serum-free medium containing 0.1% (w/v) bovine serum albumin (BSA) (Sigma-Aldrich) were treated with HBD-3 at 37°C for 30 min. Nucleic acid stain propidium iodide (PI) was then added to a final concentration of 1 μg/mL and cells subjected to flow cytometry analysis using BD FACSCanto II Flow Cytometer and BD FACSDiva Software v6.1.1 (BD Biosciences, San Jose, CA). For each flow cytometry reading, 10,000 cells, gated appropriately based on forward scattering and side scattering, were recorded. The resultant data were processed using FlowJo software (Tree Star, San Carlos, CA) to determine PI-positivity, which reflects the level of membrane permeabilisation. For lipid inhibition assays, 15 μM HBD-3 was pre-incubated with 50 μM synthetic lipids, including L-α-phosphatidic acid (PA), L-α-phosphatidylcholine (PC), L-α-phosphatidylethanolamine (PE), L-α-phosphatidylserine (PS), L-α-phosphatidylinositol-4-phosphate (PI(4)P), L-α-phosphatidylinositol-3,5-bisphosphate (PI(3,5)P2), L-α-phosphatidylinositol-4,5-bisphosphate (PI(4,5)P2) and L-α-phosphatidylinositol-3,4,5-trisphosphate (PI(3,4,5)P)3. All lipids were sourced from Avanti Polar Lipids, Alabaster, AL. […]

[3] = Protein-lipid overlay assay, Membrane strip; format: binding; settings: 1 μg/mL protein, immunodetection, densitometry
Experimental: Protein-lipid overlay assays using Membrane strip™ or PIP strip™ (Echelon Biosciences, Salt Lake City, UT) were performed using 1 μg/mL proteins as described previously. Lipid binding was immunodetected using a combination of rabbit anti-HBD-3 IgG (50 μg/mL) and horseradish peroxidase-conjugated donkey-anti-rabbit Ig (10 μg/mL) antibodies. Chemiluminescence signal intensity was quantitated by densitometry analysis using ImageJ (National Institutes of Health, Bethesda, MD; http://imagej.nih.gov/ij/).

[4] = ATP-encapsulated liposome leakage assay, PC:PI(4,5)P2; settings: PC liposomes containing 5% PI(4,5)P2, concentration-dependent, compared with PC only
Experimental: Liposomes were generated as described previously using natural PI(4,5)P2 (porcine brain, in chloroform:methanol:water at 20:9:1 molar ratio) and PC (chicken egg, in chloroform) purchased from Avanti Polar Lipids. PC only or PC:PI(4,5)P2 (95:5 molar ratio) solutions were dried under a stream of nitrogen gas followed by overnight vacuum-drying. The lipid films were rehydrated to a final concentration of 5 mg/mL in 20 mM HEPES (pH 7.2) containing 5 mg/mL adenosine-5-triphosphate disodium salt (ATP; Sigma-Aldrich) at 37°C for 1 h. After three subsequent cycles of freezing (liquid nitrogen) and thawing (25°C), multilamellar liposomes were extruded 15–20 times through a mini-extruder (Avanti Polar Lipids). Free ATP was removed by three centrifugal washes with 20 mM HEPES at 16,500 g prior to the ATP release assay. Liposomes treated with 1% Triton X-100 were included as positive control and assigned as total lysis, whereas HEPES only control served as background reading. The level of ATP release at a particular time point was determined by quotient of the corrected reading (after subtracting background) of the sample at that time point and corrected reading of total lysis, as per the following equation: % Lysist=Samplet−HEPESt/Triton X−HEPES×100

[5] = system: HeLa cells; assay: PI-positive counting of GFP-PH versus GFP only transfected cells by CLSM; format: cell-based, human; settings: 15 μM HBD-3, confocal imaging over 30 min, five independent experiments
Experimental: Live imaging was performed on a Zeiss LSM-780 confocal microscope using a 63× oil immersion objective in a 37°C incubator with 5% CO2. Adherent HeLa cells were cultured overnight on coverslips while suspension U937 cells were immobilised onto 0.01% (w/v) poly-L-lysine-coated coverslips. Both cell types were prepared in serum-free RPMI 1640 medium containing 0.1% (w/v) BSA and 2 μg/mL PI. HBD-3 or BODIPY FL EDA-labeled HBD-3 was added directly to the imaging chamber to final concentration of 15 μM, via a capillary tube. In certain experiments, prior to imaging, cells were pre-stained with the membrane dye PKH67 as per manufacturer's instructions (Sigma-Aldrich) or transfected with expression vectors carrying GFP only or GFP-tagged Pleckstrin homology domain of phospholipase C-delta 1 (GFP-PH(PLCδ1)) (kindly provided by Christina Mitchell, Monash University, Australia), using Lipofectamine 3000 reagent (Invitrogen) as per manufacturer's instructions. For CLSM involving transfections, images were taken as 4×4 tiles over 30 min, and the resultant data for GFP and GFP-PH transfected cells were analysed by counting PI-positive cells.

[6] = Transmission electron microscopy of fibril formation with PI(4,5)P2; settings: in vitro, data not shown

## human β-defensin 3 (GIINTLQKYYCRVRGGRCAVLSCLPKEEQIGKCSTRGRKCCRRKK; not fully specified; cysteine pairing not given here; UniProt P81534 23-67, looked up) [HBD-3, human β-defensin 3, cationic antimicrobial peptide, recombinantly expressed in P. pastoris]
[1]
  IC50: 8 to 20 µM
[2]
  cells permeabilised (PI-positive): less than 20%
[3]
  relative binding intensity to lipids on Membrane strip: greater relative binding intensity toward phospholipids
[4]
  ATP release from ATP-encapsulated liposomes: much higher level of ATP was released
[5]
  fold lower number of PI-positive cells in GFP-PH(PLCδ) versus GFP only-transfected cells: 2.5 fold
[6]
  oligomerisation to fibrils on binding PI(4,5)P2: not observed

From PMC4811302, “Human β-defensin 3 contains an oncolytic motif that binds PI(4,5)P2 to mediate tumour cell permeabilisation” (Oncotarget, 2015)
